Among the data in ChEMBL document CHEMBL4428068, “Allosteric Modulation of Phosphatase Activity May Redefine Therapeutic Value” (J Med Chem, 2016) are IC50 values, retold here.

In the experiment the target is T1, Tyrosine-protein phosphatase non-receptor type 11 (Homo sapiens, UniProt Q06124).
T1 sequence (Q06124 whole entry): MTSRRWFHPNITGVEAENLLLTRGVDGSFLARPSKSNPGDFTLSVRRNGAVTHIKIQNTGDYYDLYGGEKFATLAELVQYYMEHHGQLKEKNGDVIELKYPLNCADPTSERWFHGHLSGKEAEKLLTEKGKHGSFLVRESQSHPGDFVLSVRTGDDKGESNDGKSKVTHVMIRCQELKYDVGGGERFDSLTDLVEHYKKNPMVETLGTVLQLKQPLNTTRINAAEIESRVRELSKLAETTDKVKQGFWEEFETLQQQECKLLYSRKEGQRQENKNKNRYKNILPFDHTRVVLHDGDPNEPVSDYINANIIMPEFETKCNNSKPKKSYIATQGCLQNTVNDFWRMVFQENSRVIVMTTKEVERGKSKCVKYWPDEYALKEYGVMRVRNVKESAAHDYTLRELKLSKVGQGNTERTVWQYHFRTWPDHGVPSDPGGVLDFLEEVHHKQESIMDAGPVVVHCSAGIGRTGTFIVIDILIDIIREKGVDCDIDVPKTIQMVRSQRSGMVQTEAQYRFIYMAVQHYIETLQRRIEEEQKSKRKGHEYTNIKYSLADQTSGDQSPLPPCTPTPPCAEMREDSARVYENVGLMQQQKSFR
Briefly: Negative allosteric modulator activity at SHP2 (unknown origin).

SMILES strings stand for the structures.

As to `C[C@@H]1CN(c2ncc(-c3cccc(Cl)c3Cl)c(N)n2)C[C@H](C)N1`, the 50% inhibitory concentration (IC50) (in general, the midpoint of a concentration-inhibition curve) came out at 12 µM. This counts as double-digit micromolar.
